Assay results reported in patent US6706740B2, “Fungicidal heterocyclic aromatic amides and their compositions, methods of use and preparation” (Dow AgroSciences LLC, priority 1999, dated 2004).
Like-named read-outs stand apart in the source and are kept apart here.

What was measured:
[1] = test system: Magnaporthe grisea (Pyricularia oryzae—PYRIOR); test: microbe, parasite or virus in culture; assay type: cell-based; conditions: for inhibition at 25 ppm: Pyricularia oryzae, read-out: PYRIOR in vitro Growth Inhibition
[2] = test system: Rhizoctonia solani (RHIZSO); test: microbe, parasite or virus in culture; assay type: cell-based; conditions: for inhibition at 25 ppm: Rhizoctonia solani, read-out: RHIZSO in vitro Growth Inhibition
[3] = test system: Mycosphaerella graminicola (Septoria tritici—SEPTTR); test: In vitro fungal growth inhibition, Mycosphaerella graminicola (SEPTTR); assay type: cell-based; conditions: for inhibition at 25 ppm: Zymoseptoria tritici, 25 ppm in growth medium, read-out: SEPTTR in vitro Growth Inhibition
[4] = test system: Stagonospora nodorum (Leptosphaeria nodorum—LEPTNO); test: In vitro fungal growth inhibition, Stagonospora nodorum (LEPTNO); assay type: cell-based; conditions: for inhibition at 25 ppm: Leptosphaeria, 25 ppm in growth medium, read-out: LEPTNO in vitro Growth Inhibition
[5] = test system: Ustilago maydis (USTIMA); test: microbe, parasite or virus in culture; assay type: cell-based; conditions: for inhibition at 25 ppm: Mycosarcoma maydis, read-out: USTIMA in vitro Growth Inhibition
[6] = test system: Phytophthora infestans (PHYTIN); test: microbe, parasite or virus in culture; assay type: cell-based; conditions: for inhibition at 25 ppm: Phytophthora infestans, read-out: PHYTIN in vitro Growth Inhibition
[7] = test system: Phytophthora infestans—PHYTIN; test: whole plant or invertebrate; assay type: in vivo; conditions: Phytophthora, in Solanum lycopersicum, 24 h, read-out: PHYTIN in vivo 1 Day Protectant
[8] = test system: Puccinia recondita—PUCCRT; test: Brown Rust of Wheat, in vivo whole plant, 24 Hour Protectant; conditions: 100 ppm spray, 24 hour protectant, wheat; for pest or weed control at 100 ppm: Puccinia, control of fungal infection vs untreated plants, read-out: PUCCRT in vivo 1 Day Protectant
[9] = test system: Erysiphe graminis—ERYSGT; test: Powdery Mildew of Wheat, in vivo whole plant, 24 Hour Protectant; conditions: for pest or weed control at 100 ppm: Erysiphe, 100 ppm spray, 24 hour protectant, wheat, read-out: ERYSGT in vivo 1 Day Protectant
[10] = test system: Leptosphaeria nodorum—LEPTNO; test: Glume Blotch of Wheat, in vivo whole plant, 24 Hour Protectant; conditions: 100 ppm spray, 24 hour protectant, wheat; for pest or weed control at 100 ppm: Leptosphaeria, read-out: LEPTNO in vivo 1 Day Protectant
[11] = control of fungal infection vs untreated plants
[12] = % control of fungal infection vs untreated plants

Row | Structure (SMILES) | inhibition at 25 ppm [1] [%] | inhibition at 25 ppm [2] [%] | inhibition at 25 ppm [3] [%] | inhibition at 25 ppm [4] [%] | inhibition at 25 ppm [5] [%] | inhibition at 25 ppm [6] [%] | pest or weed control at 100 ppm [7] [%] | pest or weed control at 100 ppm [8] [%] | pest or weed control at 100 ppm [9, 11] [%] | pest or weed control at 100 ppm [10, 11] [%] | also measured
1 | COc1ccnc(C(=O)NCC(C)(C)Sc2ncc(C(F)(F)F)cc2Cl)c1O [Compound 244] | > 80 | < 80 | > 80 | > 80 | < 80 | < 80 | < 25 | < 25 | < 25 | 25 to 74 | –
2 | COc1ccnc(C(=O)NC2CCC[C@H]3CC(CCC=C(C)C)=CC[C@@H]23)c1O (stereo partly shown) [Compound 286] | < 80 | > 80 | < 80 | > 80 | < 80 | < 80 | < 25 | < 25 | < 25 | 25 to 74 | –
3 | COc1ccnc(C(=O)NC2CCC[C@H]3[C@H]4CC[C@H](C4)[C@@H]23)c1O (stereo partly shown) [Compound 291] | < 80 | > 80 | < 80 | > 80 | < 80 | < 80 | < 25 | < 25 | < 25 | 25 to 74 | –
4 | COc1ccnc(C(=O)N[C@H]2CC[C@H]3C4CCC(CC4)[C@H]3C2=O)c1O [Compound 292] | < 80 | < 80 | < 80 | > 80 | < 80 | < 80 | < 25 | 25 to 74 | < 25 | – | LEPTNO in vivo 1 Day Protectant [10, 11]: + +
5 | COc1ccnc(C(=O)N[C@H]2CC3CC2[C@H](COCc2cccc(C(F)(F)F)c2)C3)c1O (stereo partly shown) [Compound 294] | > 80 | > 80 | > 80 | > 80 | < 80 | < 80 | < 25 | < 25 | < 25 | – | LEPTNO in vivo 1 Day Protectant [10, 11]: + +
6 | COc1ccnc(C(=O)N[C@H]2CC3CC2C[C@@H]3COCc2cccc(C(F)(F)F)c2)c1O (stereo partly shown) [Compound 296] | > 80 | > 80 | < 80 | > 80 | < 80 | < 80 | < 25 | < 25 | < 25 | 25 to 74 | –
7 | COc1ccnc(C(=O)N[C@@H]2CC3CC2[C@@H](c2ccccc2)[C@@H]3C(=O)OC(C)C)c1O (stereo partly shown) [Compound 300] | < 80 | > 80 | < 80 | > 80 | < 80 | < 80 | < 25 | < 25 | < 25 | 25 to 74 | –
8 | COc1ccnc(C(=O)N[C@@H]2CC3CC2[C@@H](C(=O)OCCc2ccccc2)[C@H]3C(=O)OCC(C)C)c1O (stereo partly shown) [Compound 301] | > 80 | > 80 | < 80 | > 80 | < 80 | < 80 | < 25 | 25 to 74 | < 25 | 25 to 74 | –
9 | COc1ccnc(C(=O)N[C@H]2COC(=O)[C@H](Cc3ccccc3)[C@@H](OC(=O)C(C)C)[C@H](C)OC2=O)c1OC(=O)c1ccc(Cl)nc1 [Compound 669] | < 80 | < 80 | < 80 | > 80 | < 80 | < 80 | < 25 | – | – | – | pest or weed control at 100 ppm [9, 12]: < 25%
10 | COc1ccnc(C(=O)N[C@H]2COC(=O)[C@H](Cc3ccccc3)[C@@H](OC(=O)C(C)C)[C@H](C)OC2=O)c1OC(=O)Cc1cccs1 [Compound 675] | > 80 | < 80 | < 80 | > 80 | < 80 | < 80 | – | – | – | – | –
11 | COc1ccnc(C(=O)N[C@H]2COC(=O)[C@H](Cc3ccccc3)[C@@H](OC(=O)C(C)C)[C@H](C)OC2=O)c1OC(=O)c1snnc1C [Compound 676] | < 80 | < 80 | < 80 | > 80 | < 80 | < 80 | – | – | – | – | –
12 | COc1ccnc(C(=O)N[C@H]2COC(=O)[C@H](Cc3ccccc3)[C@@H](OC(=O)C(C)C)[C@H](C)OC2=O)c1OC(=O)c1c(-c2c(Cl)cccc2Cl)noc1C [Compound 677] | < 80 | < 80 | < 80 | > 80 | < 80 | < 80 | – | – | – | – | –
13 | C=CCOC(=O)Oc1c(OC)ccnc1C(=O)N[C@H]1COC(=O)[C@H](Cc2ccccc2)[C@@H](OC(=O)C(C)C)[C@H](C)OC1=O [Compound 681] | > 80 | > 80 | < 80 | > 80 | < 80 | < 80 | – | – | – | – | –
14 | COc1ccnc(C(=O)N[C@H]2COC(=O)[C@H](Cc3ccccc3)[C@@H](OC(=O)C(C)C)[C@H](C)OC2=O)c1OC(=O)OCc1ccccc1 [Compound 695] | > 80 | < 80 | < 80 | < 80 | < 80 | < 80 | < 25 | – | – | – | PUCCRT in vivo 1 Day Protectant [8, 12]: + +; pest or weed control at 100 ppm [9, 12]: < 25%; LEPTNO in vivo 1 Day Protectant [10, 12]: + +
15 | COc1ccnc(C(=O)N[C@H]2COC(=O)[C@H](Cc3ccccc3)[C@@H](OC(=O)C(C)C)[C@H](C)OC2=O)c1OC(=O)Oc1ccccc1 [Compound 697] | < 80 | < 80 | < 80 | > 80 | < 80 | < 80 | – | – | – | – | –
16 | CCCSC(=O)Oc1c(OC)ccnc1C(=O)N[C@H]1COC(=O)[C@H](Cc2ccccc2)[C@@H](OC(=O)C(C)C)[C@H](C)OC1=O [Compound 699] | > 80 | < 80 | < 80 | > 80 | < 80 | < 80 | – | – | – | – | –
17 | CON=C(c1ccc(NC(=O)c2nccc(OC)c2OC(C)=O)cc1)c1cccc(C(F)(F)F)c1 [Compound 707] | – | – | – | – | – | – | – | – | – | – | PYRIOR in vitro Growth Inhibition [1]: + (key: +: at least 80% growth inhibition; −: less than 80% growth inhibition); RHIZSO in vitro Growth Inhibition [2]: − (key: +: at least 80% growth inhibition; −: less than 80% growth inhibition); SEPTTR in vitro Growth Inhibition [3]: − (key: +: at least 80% growth inhibition; −: less than 80% growth inhibition); LEPTNO in vitro Growth Inhibition [4]: − (key: +: at least 80% growth inhibition; −: less than 80% growth inhibition); USTIMA in vitro Growth Inhibition [5]: − (key: +: at least 80% growth inhibition; −: less than 80% growth inhibition); PHYTIN in vitro Growth Inhibition [6]: − (key: +: at least 80% growth inhibition; −: less than 80% growth inhibition); ERYSGT in vivo 1 Day Protectant [9]: + +
18 | COCCC(=O)Oc1c(OC)ccnc1C(=O)Nc1ccc(C(=NOC)c2cccc(C(F)(F)F)c2)cc1 [Compound 708] | – | – | – | – | – | – | – | – | – | – | PYRIOR in vitro Growth Inhibition [1]: − (key: +: at least 80% growth inhibition; −: less than 80% growth inhibition); RHIZSO in vitro Growth Inhibition [2]: − (key: +: at least 80% growth inhibition; −: less than 80% growth inhibition); SEPTTR in vitro Growth Inhibition [3]: + (key: +: at least 80% growth inhibition; −: less than 80% growth inhibition); LEPTNO in vitro Growth Inhibition [4]: + (key: +: at least 80% growth inhibition; −: less than 80% growth inhibition); USTIMA in vitro Growth Inhibition [5]: − (key: +: at least 80% growth inhibition; −: less than 80% growth inhibition); PHYTIN in vitro Growth Inhibition [6]: − (key: +: at least 80% growth inhibition; −: less than 80% growth inhibition); ERYSGT in vivo 1 Day Protectant [9]: + +
